# System: hPSCs
# Test: Monolayer endothelial differentiation of hPSCs in defined medium, flow cytometry at day 10
# Format: cell-based, human
# Settings: VEGF together with SB-431542 5 μM from day 3, versus VEGF only; average over several cell lines
# Source text: hiPSC lines were generated from Fib or BOECs using conditional lentiviral vectors containing the four transcription factors oct4, c-myc, Klf4 and Sox2, and characterized as described previously (Dambrot et al., 2013; Freund et al., 2008; Orlova et al., manuscript in preparation). hiPSCs and hESC (line HES-NL4; (van de Stolpe et al., 2005)) were routinely maintained on growth factor reduced MATRIGEL®-(BD, 354230) coated plates in mTeSR media (StemCell Technologies, 05850) and passaged mechanically. Differentiation was induced three days after passaging colonies by replacing mTeSR medium with the differentiation media based on BPEL (without PVA) (Ng et al., 2008) with timed addition of the following growth factors: 25 ng/ml ActivinA (Miltenyi, 130-095-547), 30 ng/ml BMP4 (Miltenyi, 130-095-549), VEGF165 (R&D Systems, 293-VE) and small molecule inhibitor CHIR99021 (Tocris, 4423). At day 3 and day 7 of differentiation, the media was refreshed with BPEL containing VEGF and 5 μM SB43152 (Tocris, 1614) only.
# Cells were dissociated with TrypLE Select and washed once with the FACs buffer with the 10% FBS, followed by the single wash with the FACs buffer. […] In some experiment samples were analyzed with the MACSQuant VYB (Miltenyi). […]
compound,measurement,value
"NC(=O)c1ccc(-c2nc(-c3ccc4c(c3)OCO4)c(-c3ccccn3)[nH]2)cc1 [SB431542, reference compound]",increase in the yield of ECs,30%

# — US10119122B2, “Differentiation and expansion of endothelial cells from pluripotent stem cells and the in vitro formation of vasculature like structures” (Academisch Ziekenhuis Leiden, priority 2013, dated 2018)
